In one experiment the target is T1, c-kit mutant D816V (Homo sapiens, UniProt P10721, D816V/DEL694-753).
T1 construct: residues 551-934, kinase insertion domain residues 694-753 deleted; 6x-histidine (N); made in house; host or cells: E. coli Arctic Express (DE3) RIL (Stratagene)
The experiment in a line: c-Kit mutant D816V biochemical assay, AlphaScreen. As to conditions: c-kit D816V biochemical inhibitory activity; read-out: Biochemical activity (IC50 μM) Kit D816V. The gist of the method: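 Purified His-tagged c-Kit D816V (E. coli-expressed) assayed in 25 mM HEPES pH 7.2 with Mg/Mn, 5% DMSO and 10 μM ATP, 30 min at room temperature, 8-point 1:3 dilutions. Phosphorylation detected by AlphaScreen with streptavidin donor and PY20 acceptor beads; IC50 from signal versus concentration.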
In general terms: Alpha assays give light when donor and acceptor beads are brought close together.

The target of a further experiment is T2, c-kit kinase (Homo sapiens, UniProt P10721).
T2 construct: The c-kit (or kinase domain thereof) is an active kinase in AlphaScreen; poly-Histidine tag (in-house protein only) (cleaved yes); host or cells: E. coli BL21(DE3)RIL, co-expressed with PTP1B
Put plainly: c-Kit biochemical assay, AlphaScreen, 10 μM ATP. The note with it: c-kit biochemical inhibitory activity; read-out: Biochemical activity (IC50 μM) Kit. Summed up: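 His-tagged c-Kit expressed in E. coli with co-expressed PTP1B (dephosphorylated), tag removed; 0.1 ng per reaction with biotinylated-peptide substrate in 50 mM HEPES pH 7.2, 5 mM MgCl2, 5 mM MnCl2, 5% DMSO, 10 μM ATP, 1 h at room temperature. Phosphorylation detected by AlphaScreen (streptavidin donor, PY20 acceptor beads); IC50 from 8-point 1:3 dilution series.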

T1 sequence (P10721 with tags, fused parts or gaps DEL694-753/D816V): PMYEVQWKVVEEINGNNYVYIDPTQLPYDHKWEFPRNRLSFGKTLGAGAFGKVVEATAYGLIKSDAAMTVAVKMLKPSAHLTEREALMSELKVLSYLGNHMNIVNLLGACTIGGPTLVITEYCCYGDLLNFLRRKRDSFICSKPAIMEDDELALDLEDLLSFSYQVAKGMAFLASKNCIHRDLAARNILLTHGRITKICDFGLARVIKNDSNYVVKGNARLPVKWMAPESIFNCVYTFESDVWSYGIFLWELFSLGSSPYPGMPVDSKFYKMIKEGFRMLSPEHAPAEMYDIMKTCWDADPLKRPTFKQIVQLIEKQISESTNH
T2 sequence (P10721 26-976): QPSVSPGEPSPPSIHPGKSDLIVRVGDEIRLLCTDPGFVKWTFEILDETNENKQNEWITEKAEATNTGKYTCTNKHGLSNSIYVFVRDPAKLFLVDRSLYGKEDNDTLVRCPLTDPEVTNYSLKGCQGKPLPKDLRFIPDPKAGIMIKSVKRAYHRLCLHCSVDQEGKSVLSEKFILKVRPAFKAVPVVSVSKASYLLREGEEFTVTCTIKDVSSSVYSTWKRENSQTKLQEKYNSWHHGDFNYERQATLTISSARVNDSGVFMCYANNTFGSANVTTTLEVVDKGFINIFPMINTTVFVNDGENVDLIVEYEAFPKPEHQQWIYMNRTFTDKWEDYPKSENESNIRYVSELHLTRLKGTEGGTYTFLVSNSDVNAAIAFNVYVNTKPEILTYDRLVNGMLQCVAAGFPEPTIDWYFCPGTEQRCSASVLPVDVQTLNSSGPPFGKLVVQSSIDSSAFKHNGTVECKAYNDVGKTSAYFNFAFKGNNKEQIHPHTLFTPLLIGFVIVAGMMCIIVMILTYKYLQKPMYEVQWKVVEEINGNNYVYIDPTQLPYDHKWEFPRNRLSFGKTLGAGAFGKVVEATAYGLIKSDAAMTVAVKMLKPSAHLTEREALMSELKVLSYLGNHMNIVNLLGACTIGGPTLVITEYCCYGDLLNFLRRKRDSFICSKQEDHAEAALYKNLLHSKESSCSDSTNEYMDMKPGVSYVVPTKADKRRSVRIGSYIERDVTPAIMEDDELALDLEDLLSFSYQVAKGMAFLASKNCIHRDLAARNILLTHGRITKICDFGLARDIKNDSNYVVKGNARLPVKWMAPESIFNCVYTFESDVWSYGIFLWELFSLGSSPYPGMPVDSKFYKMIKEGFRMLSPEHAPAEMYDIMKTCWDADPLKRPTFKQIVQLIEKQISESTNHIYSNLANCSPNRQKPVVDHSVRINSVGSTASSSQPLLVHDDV

As for `COc1cccc([C@H](C)NC(=O)N2CCN(c3ncnc4cc(-c5ccc(F)cc5)sc34)CC2(C)C)c1` [P-0594, 4-[6-(4-fluorophenyl)thieno[3,2-d]pyrimidin-4-yl]-N-[(1S)-1-(3-methoxyphenyl)ethyl]-2,2-dimethyl-piperazine-1-carboxamide], the half-inhibitory concentration (IC50) fell in the range of 0.0001 to 1 µM on c-kit mutant D816V and 1 to 10 µM on c-kit kinase.
On the same counts, the results for `CC1(C)CN(c2ncnc3cc(-c4ccc(F)cc4)sc23)CCN1` [P-0595, 4-(3,3-dimethylpiperazin-1-yl)-6-(4-fluorophenyl)thieno[3,2-d]pyrimidine] are 10 to 200 µM and 10 to 200 µM.
`O=C(NCc1ccc(F)cc1)N1CCN(c2ncnc3cc(C4CCNCC4)sc23)CC1` [P-0596, N-[(4-fluorophenyl)methyl]-4-[6-(4-piperidyl)thieno[3,2-d]pyrimidin-4-yl]piperazine-1-carboxamide]: the results for the concentration for half-maximal inhibition (IC50) on c-kit mutant D816V and on c-kit kinase were 1 to 10 µM and 10 to 200 µM, respectively.
On the same counts, the results for `COc1cccc([C@H](C)NC(=O)N2CCN(c3ncnc4cc(-c5cn(C)nc5C)sc34)C[C@H]2C)c1` [P-0598, (2R)-4-[6-(1,3-dimethylpyrazol-4-yl)thieno[3,2-d]pyrimidin-4-yl]-N-[(1S)-1-(3-methoxyphenyl)ethyl]-2-methyl-piperazine-1-carboxamide] are 0.0001 to 1 µM and 1 to 10 µM.
On the same counts, the results for `Cc1nn(C)cc1-c1cc2ncnc(N3CCN(C(=O)N[C@@H](C)c4ccc(F)cc4)[C@H](C)C3)c2s1` [P-0599, (2R)-4-[6-(1,3-dimethylpyrazol-4-yl)thieno[3,2-d]pyrimidin-4-yl]-N-[(1S)-1-(4-fluorophenyl)ethyl]-2-methyl-piperazine-1-carboxamide] are 0.0001 to 1 µM and 10 to 200 µM.
As to `COc1cccc([C@H](C)NC(=O)N2CCN(c3ncnc4cc(-c5ccc(F)cc5)sc34)C[C@H]2C)c1` [P-0600, (2R)-4-[6-(4-fluorophenyl)thieno[3,2-d]pyrimidin-4-yl]-N-[(1S)-1-(3-methoxyphenyl)ethyl]-2-methyl-piperazine-1-carboxamide], the IC50 at c-kit mutant D816V is 0.0001 to 1 µM; at c-kit kinase it was 10 to 200 µM.
`C[C@@H]1CN(c2ncnc3cc(-c4ccc(F)cc4)sc23)CCN1C(=O)NCc1ccc(F)cc1` [P-0602, (2R)-N-[(4-fluorophenyl)methyl]-4-[6-(4-fluorophenyl)thieno[3,2-d]pyrimidin-4-yl]-2-methyl-piperazine-1-carboxamide]: the 50% inhibitory concentration (IC50) on c-kit mutant D816V was in the range of 0.0001 to 1 µM; on c-kit kinase, 10 to 200 µM.
As to `Cc1nn(C)cc1-c1cc2ncnc(C3CCN(C(=O)N[C@@H](C)c4ccc(F)cc4)CC3)c2s1` [P-0603, 4-[6-(1,3-dimethylpyrazol-4-yl)thieno[3,2-d]pyrimidin-4-yl]-N-[(1S)-1-(4-fluorophenyl)ethyl]piperidine-1-carboxamide], the IC50 on c-kit mutant D816V is 1 to 10 µM; at c-kit kinase, 10 to 200 µM.
As to `Cc1nn(C)cc1-c1cc2ncnc(C3CCN(C(=O)NCc4ccc(F)cc4)CC3)c2s1` [P-0604, 4-[6-(1,3-dimethylpyrazol-4-yl)thieno[3,2-d]pyrimidin-4-yl]-N-[(4-fluorophenyl)methyl]piperidine-1-carboxamide], the values for the IC50 at c-kit mutant D816V and on c-kit kinase were 0.0001 to 1 µM and 1 to 10 µM, respectively.
Turning to `COc1cccc([C@@H](C)NC(=O)N2CCN(c3ncnc4cc(-c5ccc(F)cc5)sc34)C[C@H]2C)c1` [P-0605, (2R)-4-[6-(4-fluorophenyl)thieno[3,2-d]pyrimidin-4-yl]-N-[(1R)-1-(3-methoxyphenyl)ethyl]-2-methyl-piperazine-1-carboxamide], the 50% inhibitory concentration (IC50) at c-kit mutant D816V and at c-kit kinase was 10 to 200 µM throughout.
Turning to `C[C@@H]1CN(c2ncnc3cc(-c4ccc(F)cc4)sc23)CCN1C(=O)N[C@H](C)c1ccc(F)cc1` [P-0606, (2R)-N-[(1R)-1-(4-fluorophenyl)ethyl]-4-[6-(4-fluorophenyl)thieno[3,2-d]pyrimidin-4-yl]-2-methyl-piperazine-1-carboxamide], the values for the IC50 on c-kit mutant D816V and at c-kit kinase were 1 to 10 µM and 10 to 200 µM, respectively.
As to `Cc1nn(C)cc1-c1cc2ncnc(C3CCNCC3)c2s1` [P-0607, 6-(1,3-dimethylpyrazol-4-yl)-4-(4-piperidyl)thieno[3,2-d]pyrimidine], the IC50 was in the range of 10 to 200 µM at c-kit mutant D816V and 1 to 10 µM at c-kit kinase.
The like results for `COc1cccc([C@@H](C)NC(=O)N2CCN(c3ncnc4cc(-c5cn(C)nc5C)sc34)C[C@H]2C)c1` [P-0608, (2R)-4-[6-(1,3-dimethylpyrazol-4-yl)thieno[3,2-d]pyrimidin-4-yl]-N-[(1R)-1-(3-methoxyphenyl)ethyl]-2-methyl-piperazine-1-carboxamide] were, in that order, 0.0001 to 1 µM and 10 to 200 µM.
As for `Cc1nn(C)cc1-c1cc2ncnc(N3CCN(C(=O)N[C@H](C)c4ccc(F)cc4)[C@H](C)C3)c2s1` [P-0609, (2R)-4-[6-(1,3-dimethylpyrazol-4-yl)thieno[3,2-d]pyrimidin-4-yl]-N-[(1R)-1-(4-fluorophenyl)ethyl]-2-methyl-piperazine-1-carboxamide], the 50% inhibitory concentration (IC50) lay in the range of 0.0001 to 1 µM on c-kit mutant D816V and 1 to 10 µM at c-kit kinase.
Take `Cc1nn(C)cc1-c1cc2ncnc(N3CCN(C(=O)NCc4ccc(F)cc4)[C@H](C)C3)c2s1` [P-0610, (2R)-4-[6-(1,3-dimethylpyrazol-4-yl)thieno[3,2-d]pyrimidin-4-yl]-N-[(4-fluorophenyl)methyl]-2-methyl-piperazine-1-carboxamide]: the IC50 was 0.0001 to 1 µM at c-kit mutant D816V and 1 to 10 µM at c-kit kinase.
The like results for `Cc1ccc(S(=O)(=O)Nc2ccc(-c3ncnc4cc(C5=CCNCC5)sc34)cc2)cc1` [P-0611, 4-methyl-N-[4-[6-(1,2,3,6-tetrahydropyridin-4-yl)thieno[3,2-d]pyrimidin-4-yl]phenyl]benzenesulfonamide] were, in that order, 0.0001 to 1 µM and 0.0001 to 1 µM.
`Cc1nn(C)cc1-c1cc2ncnc(C3=CCN(C(=O)Nc4ccc(Cl)cc4)CC3)c2s1` [P-0612, N-(4-chlorophenyl)-4-[6-(1,3-dimethylpyrazol-4-yl)thieno[3,2-d]pyrimidin-4-yl]-3,6-dihydro-2H-pyridine-1-carboxamide]: the 50% inhibitory concentration (IC50) on c-kit mutant D816V and on c-kit kinase was 0.0001 to 1 µM throughout.
With `Cc1nn(C)cc1-c1cc2ncnc(C3=CCN(C(=O)NCc4ccc(F)cc4)CC3)c2s1` [P-0613, 4-[6-(1,3-dimethylpyrazol-4-yl)thieno[3,2-d]pyrimidin-4-yl]-N-[(4-fluorophenyl)methyl]-3,6-dihydro-2H-pyridine-1-carboxamide], the 50% inhibitory concentration (IC50) was 0.0001 to 1 µM at c-kit mutant D816V and 1 to 10 µM on c-kit kinase.
The like results for `Cc1ccc(S(=O)(=O)Nc2ccc(-c3ncnc4cc(C5=CCN(C(=O)OC(C)(C)C)CC5)sc34)cc2)cc1` [P-0614, tert-butyl 4-[4-[4-(p-tolylsulfonylamino)phenyl]thieno[3,2-d]pyrimidin-6-yl]-3,6-dihydro-2H-pyridine-1-carboxylate] were, in that order, 0.0001 to 1 µM and 1 to 10 µM.
Consider `O=C(NCc1ccc(F)cc1)N1CCN(c2ncnc3cc(C4=CCNCC4)sc23)CC1` [P-0615, N-[(4-fluorophenyl)methyl]-4-[6-(1,2,3,6-tetrahydropyridin-4-yl)thieno[3,2-d]pyrimidin-4-yl]piperazine-1-carboxamide], for which the results for the half-maximal inhibitory concentration (IC50) on c-kit mutant D816V and at c-kit kinase were 0.0001 to 1 µM and 1 to 10 µM, respectively.

In general, IC50 refers to the concentration that gives 50% inhibition.
